In ChEMBL document CHEMBL1811849, “Development of a plate-based scintillation proximity assay for the mycobacterial AftB enzyme involved in cell wall arabinan biosynthesis” (Bioorg Med Chem, 2010):
The source made the active and inactive calls. The rule behind the calls is not given here.

Legend:
[1] = system: Mycolicibacterium smegmatis; assay: Activity of AftB in Mycobacterium smegmatis membrane assessed as formation of biosynthetic products by TLC based assay; format: cell membranes
[2] = system: Mycolicibacterium smegmatis; assay: Activity of AftB in Mycobacterium smegmatis membrane/p60 fraction assessed as incorporation of DP[3H]A to compound to generate biotinylated trisaccharide with beta-(1 to 2) Araf residue by SPA assay

Row | Structure (SMILES) | Activity [1] | Km [2]
1 | C=CCCCO[C@H]1O[C@H](CO[C@H]2O[C@H](CO[C@H]3O[C@H](CO)[C@@H](O)[C@@H]3O)[C@@H](O)[C@@H]2O)[C@@H](O)[C@@H]1O | Active | 
2 | C=CCCCO[C@H]1O[C@H](CO[C@H]2O[C@H](CO)[C@@H](O)[C@@H]2O)[C@@H](O)[C@@H]1O | Active | 
3 | O=C(CCCC[C@@H]1SC[C@@H]2NC(=O)N[C@@H]21)NCCSCCCCCO[C@H]1O[C@H](CO[C@H]2O[C@H](CO)[C@@H](O)[C@@H]2O)[C@@H](O)[C@@H]1O |  | 40.9 µM
4 | C=CCCCO[C@H]1O[C@H](CO[C@H]2O[C@H](CO[C@H]3O[C@H](CO[C@H]4O[C@H](CO)[C@@H](O)[C@@H]4O)[C@@H](O)[C@@H]3O)[C@@H](O)[C@@H]2O)[C@@H](O)[C@@H]1O | Active | 
